Holding throughout (assay type): functional
Assay [1] deals with Staphylococcus aureus. The assay is described as follows: Antibacterial activity against Staphylococcus aureus assessed as bacterial growth inhibition incubated for 24 hrs by CLSI based two serial dilution assay.
In the next assay the test system is Aspergillus fumigatus. Put plainly: Antifungal activity against Aspergillus fumigatus assessed as inhibition of fungal growth incubated for 24 hrs by CLSI based two serial dilution assay.
Assay [2] relates to Candida albicans. The assay is described as follows: Antifungal activity against Candida albicans assessed as inhibition of fungal growth incubated for 24 hrs by CLSI based two serial dilution assay.
The test system of a further assay is Enterococcus faecalis. The assay is described as follows: Antibacterial activity against Enterococcus faecalis assessed as bacterial growth inhibition incubated for 24 hrs by CLSI based two serial dilution assay.
The test system of assay [3] is Escherichia coli. Put plainly: Antibacterial activity against Escherichia coli assessed as bacterial growth inhibition incubated for 24 hrs by CLSI based two serial dilution assay.
Assay [4] relates to Candida albicans. Put plainly: Antifungal activity against Candida albicans ATCC 90023 assessed as inhibition of fungal growth incubated for 24 hrs by CLSI based two serial dilution assay.
A further assay deals with Candida tropicalis. The assay is described as follows: Antifungal activity against Candida tropicalis assessed as inhibition of fungal growth incubated for 24 hrs by CLSI based two serial dilution assay.
Assay [5] has as its system Staphylococcus aureus. The assay is described as follows: Antibacterial activity against Staphylococcus aureus 25923 assessed as bacterial growth inhibition incubated for 24 hrs by CLSI based two serial dilution assay.
Assay [6] relates to Staphylococcus aureus. The assay is described as follows: Antibacterial activity against Staphylococcus aureus 29213 assessed as bacterial growth inhibition incubated for 24 hrs by CLSI based two serial dilution assay.
Assay [7] deals with Pseudomonas aeruginosa. Put plainly: Antibacterial activity against Pseudomonas aeruginosa ATCC 27853 assessed as bacterial growth inhibition incubated for 24 hrs by CLSI based two serial dilution assay.
For a further assay, the system named is Klebsiella pneumoniae. The assay is described as follows: Antibacterial activity against Klebsiella pneumoniae assessed as bacterial growth inhibition incubated for 24 hrs by CLSI based two serial dilution assay.
A further assay relates to Acinetobacter baumannii. Put plainly: Antibacterial activity against Acinetobacter baumannii assessed as bacterial growth inhibition incubated for 24 hrs by CLSI based two serial dilution assay.
Another assay relates to Candida parapsilosis. The assay is described as follows: Antifungal activity against Candida parapsilosis ATCC 22019 assessed as inhibition of fungal growth incubated for 24 hrs by CLSI based two serial dilution assay. The note with it: Lodderomyces parapsilosis.
Assay [8] concerns Pseudomonas aeruginosa. The assay is described as follows: Antibacterial activity against Pseudomonas aeruginosa assessed as bacterial growth inhibition incubated for 24 hrs by CLSI based two serial dilution assay.
In assay [9] the test system is Staphylococcus aureus. Put plainly: Antibacterial activity against methicillin-resistant Staphylococcus aureus assessed as bacterial growth inhibition incubated for 24 hrs by CLSI based two serial dilution assay.
For assay [10], the system named is Escherichia coli. The assay is described as follows: Antibacterial activity against Escherichia coli 25922 assessed as bacterial growth inhibition incubated for 24 hrs by CLSI based two serial dilution assay.

In brackets after ≈: the same amount, converted by molar mass.

Regarding `CCCCN1C(=O)/C(=N\Nc2nccs2)c2cc(Br)cc(Br)c21`, the MIC was 16 µM (≈ 7.33 µg/mL) in the assay on Staphylococcus aureus [1]; 512 µM (≈ 235 µg/mL) in the assay on Aspergillus fumigatus; 0.5 µM (≈ 0.229 µg/mL) in the assay with Candida albicans [2]; 0.5 µM (≈ 0.229 µg/mL) with Enterococcus faecalis; 1 µM (≈ 0.458 µg/mL) with Escherichia coli [3]; 1 µM (≈ 0.458 µg/mL) in the assay with Candida albicans [4]. Besides, the MIC is 1 µM (≈ 0.458 µg/mL) in the assay on Candida tropicalis; 0.5 µM (≈ 0.229 µg/mL) in the assay with Staphylococcus aureus [5]; 16 µM (≈ 7.33 µg/mL) with Staphylococcus aureus [6]; 512 µM (≈ 235 µg/mL) in the assay with Pseudomonas aeruginosa [7]; 0.5 µM (≈ 0.229 µg/mL) in the assay on Klebsiella pneumoniae; 512 µM (≈ 235 µg/mL) in the assay with Acinetobacter baumannii. Also, the minimum inhibitory concentration (MIC) in the assay on Candida parapsilosis turned out to be 128 µM (≈ 58.6 µg/mL); in the assay with Pseudomonas aeruginosa [8], 1 µM (≈ 0.458 µg/mL); in the assay on Staphylococcus aureus [9], 1 µM (≈ 0.458 µg/mL); in the assay with Escherichia coli [10], 1 µM (≈ 0.458 µg/mL).

On to `CCCCN1C(=O)/C(=N\Nc2nccs2)c2cccc(Cl)c21`, for which the MIC stood at 64 µM (≈ 21.4 µg/mL) with Staphylococcus aureus [1]; 128 µM (≈ 42.9 µg/mL) in the assay on Aspergillus fumigatus; 0.5 µM (≈ 0.167 µg/mL) in the assay with Candida albicans [2]; 1 µM (≈ 0.335 µg/mL) in the assay on Enterococcus faecalis; 1 µM (≈ 0.335 µg/mL) in the assay with Escherichia coli [3]; 1 µM (≈ 0.335 µg/mL) with Candida albicans [4]. Further, the minimal inhibitory concentration (MIC) with Candida tropicalis is 4 µM (≈ 1.34 µg/mL); in the assay on Staphylococcus aureus [5], 0.5 µM (≈ 0.167 µg/mL); in the assay on Staphylococcus aureus [6] it was 64 µM (≈ 21.4 µg/mL); in the assay with Pseudomonas aeruginosa [7] it was 0.5 µM (≈ 0.167 µg/mL); in the assay on Klebsiella pneumoniae, 0.5 µM (≈ 0.167 µg/mL); in the assay with Acinetobacter baumannii it was 0.5 µM (≈ 0.167 µg/mL). The MIC in the assay with Candida parapsilosis worked out at 32 µM (≈ 10.7 µg/mL); in the assay with Pseudomonas aeruginosa [8], 1 µM (≈ 0.335 µg/mL); in the assay on Staphylococcus aureus [9] it was 0.5 µM (≈ 0.167 µg/mL); in the assay with Escherichia coli [10] it was 0.5 µM (≈ 0.167 µg/mL).

For `O=C1/C(=N\Nc2nccs2)c2ccccc2N1Cc1cccc(F)c1`, the minimum inhibitory concentration (MIC) was 4 µM (≈ 1.41 µg/mL) in the assay on Staphylococcus aureus [1]; 128 µM (≈ 45.1 µg/mL) in the assay on Aspergillus fumigatus; 64 µM (≈ 22.6 µg/mL) in the assay with Candida albicans [2]; 8 µM (≈ 2.82 µg/mL) with Enterococcus faecalis; 512 µM (≈ 180 µg/mL) in the assay on Escherichia coli [3]; 32 µM (≈ 11.3 µg/mL) with Candida albicans [4]. Also, the MIC came to 16 µM (≈ 5.64 µg/mL) in the assay with Candida tropicalis; 16 µM (≈ 5.64 µg/mL) with Staphylococcus aureus [5]; 4 µM (≈ 1.41 µg/mL) in the assay on Staphylococcus aureus [6]; 128 µM (≈ 45.1 µg/mL) in the assay on Pseudomonas aeruginosa [7]; 256 µM (≈ 90.2 µg/mL) with Klebsiella pneumoniae; 256 µM (≈ 90.2 µg/mL) in the assay on Acinetobacter baumannii. Moreover, the minimum inhibitory concentration (MIC) with Candida parapsilosis came out at 32 µM (≈ 11.3 µg/mL); in the assay with Pseudomonas aeruginosa [8], 128 µM (≈ 45.1 µg/mL); in the assay on Staphylococcus aureus [9], 64 µM (≈ 22.6 µg/mL); in the assay on Escherichia coli [10], 256 µM (≈ 90.2 µg/mL).

For the compound `CCCCCCN1C(=O)/C(=N\Nc2nccs2)c2ccccc21`, the MIC in the assay on Staphylococcus aureus [1] was found to be 16 µM (≈ 5.26 µg/mL); with Aspergillus fumigatus, 32 µM (≈ 10.5 µg/mL); in the assay on Candida albicans [2] it was 32 µM (≈ 10.5 µg/mL); with Enterococcus faecalis, 4 µM (≈ 1.31 µg/mL); in the assay with Escherichia coli [3] it was 64 µM (≈ 21 µg/mL); in the assay with Candida albicans [4], 64 µM (≈ 21 µg/mL). Moreover, the MIC was determined as 16 µM (≈ 5.26 µg/mL) in the assay on Candida tropicalis; 32 µM (≈ 10.5 µg/mL) in the assay on Staphylococcus aureus [5]; 2 µM (≈ 0.657 µg/mL) in the assay with Staphylococcus aureus [6]; 32 µM (≈ 10.5 µg/mL) in the assay on Pseudomonas aeruginosa [7]; 16 µM (≈ 5.26 µg/mL) in the assay with Klebsiella pneumoniae; 16 µM (≈ 5.26 µg/mL) with Acinetobacter baumannii. The minimal inhibitory concentration (MIC) in the assay on Candida parapsilosis came to 64 µM (≈ 21 µg/mL); in the assay on Pseudomonas aeruginosa [8], 4 µM (≈ 1.31 µg/mL); in the assay with Staphylococcus aureus [9], 64 µM (≈ 21 µg/mL); with Escherichia coli [10], 16 µM (≈ 5.26 µg/mL).

In the case of `CCCCN1C(=O)/C(=N\Nc2nccs2)c2cccc(F)c21`, the MIC in the assay on Staphylococcus aureus [1] is 16 µM (≈ 5.09 µg/mL); with Aspergillus fumigatus, 256 µM (≈ 81.5 µg/mL); in the assay with Candida albicans [2] it was 32 µM (≈ 10.2 µg/mL); in the assay with Enterococcus faecalis it was 2 µM (≈ 0.637 µg/mL); with Escherichia coli [3], 4 µM (≈ 1.27 µg/mL); with Candida albicans [4], 4 µM (≈ 1.27 µg/mL). Besides, the MIC turned out to be 1 µM (≈ 0.318 µg/mL) with Candida tropicalis; 1 µM (≈ 0.318 µg/mL) with Staphylococcus aureus [5]; 16 µM (≈ 5.09 µg/mL) in the assay with Staphylococcus aureus [6]; 1 µM (≈ 0.318 µg/mL) in the assay with Pseudomonas aeruginosa [7]; 1 µM (≈ 0.318 µg/mL) in the assay on Klebsiella pneumoniae; 0.5 µM (≈ 0.159 µg/mL) in the assay with Acinetobacter baumannii. Moreover, the MIC in the assay with Candida parapsilosis was determined as 4 µM (≈ 1.27 µg/mL); with Pseudomonas aeruginosa [8], 1 µM (≈ 0.318 µg/mL); in the assay with Staphylococcus aureus [9], 4 µM (≈ 1.27 µg/mL); with Escherichia coli [10] it was 1 µM (≈ 0.318 µg/mL).

As a reminder, the MIC is the smallest concentration in the dilution series that meets the test's criterion for growth inhibition.

The record behind these values is ChEMBL document CHEMBL5370535, “Thiazolyl hydrazineylidenyl indolones as unique potential multitargeting broad-spectrum antimicrobial agents” (Eur J Med Chem, 2023).
